≈ marks a conversion by molar mass, not a printed value. Where “and” joins values, the source holds several entries; their conditions need not be identical. Equal entries are not always repeated. Where two headings read alike, the source gives them in different places.
What was measured:
[1] = cited from earlier work
[2] = cited from earlier work; remark: listed apart in the source
[3] = system: binding of TNF-alpha to its receptor; settings: 125I-TNF-alpha displacement; cited from earlier work
[4] = Pharmacokinetics of sulfasalazine in rat, oral administration; format: in vivo, male Wistar (Hannover) rats; settings: 60 mg/kg
Description: (§1) In accordance with Swedish legislations for preclinical in vivo studies in rodents and following evaluation and approval of the experimental procedures the local ethical committee (M388-12), following acclimatization to the housing conditions for a minimum of 7 days after arrival, male Wistar (Hannover) rats (Taconic, Denmark), average weight 180-200 g; average age 8-10 weeks, were treated with test items (see Table 2); 12-16 h prior to dosing all food except for an amount equivalent to a half day consumption was removed. The test items were administrated using a soft gavage tube (p.o.) or by injecting the test item in the tail vein (i.v). The volume given was 10 mL/kg (p.o.) or 1 mL/kg (i.v.). Before i.v administration the rats were anesthetized using isoflurane. The rats were conscious during sample collection and the blood was taken from the sub-lingual vein. Blood samples were collected from each rat over a period of up to 24 h. At each time point two aliquots of 50 μL each was added to a vial containing 150 μL of sterile water. The samples were mixed immediately and stored in −18° C. until preparation for bioanalysis commenced. All formulations were prepared on the same day that dosing took place. The body weight of the rat was recorded before dosing. The weight of the syringe was recorded before and after administration to allow calculation of the actual amount of test sample delivered. The actual doses were used during the evaluation of the data.
(§2) The plasma levels of sulfasalazine were determined using LCMS/MS in mrm (multiple reaction monitoring) mode.
(§3) Samples and standards were injected by a HTC PAL from CTC analytics into an LC system from Shimadzu consisting of a high pressure gradient system of two LC-10 AD pumps controlled by a SCL-10A controller from Shimadzu. The samples were separated using reverse-phase chromatography with gradient elution at a flow rate of 0.8 mL/min. Mobile phases were A:94.9/5/0.1 water/acetonitrile/formic acid and B:[…] water/acetonitrile/formic acid. Gradient started at 0% B and increased linearly to 100% B in 4 minutes, 100% B was kept for 0.5 minutes and then the system returned to 0% B in 0.1 minutes. The system was equilibrated for 1.4 minutes until the total run time of 6 minutes. The eluent was analyzed by a Quattro Ultima from Micromass equipped with an electrospray ion source. Data was collected and calibrations were calculated by MassLynx 4.0 software. […] The eluent was ionized by negative ion electrospray and the mrm transition from 397 to 197 m/z was monitored.
The diluted blood sample (50 μL blood, 150 μL water) was thawed and mixed. 400 μL of Acetonitrile, to precipitate the protein was added and mixed again. The sample was centrifuged at 5,000 g for 5 minutes. 100 μL of the supernatant was transferred to a 300 μL glass vial and 100 μL of water was added to reduce the acetonitrile concentration.
Positive and negative mode MS/MS was employed for sulfasalazine. The concentration of the standard curve was in the range from 5 nM to 15625 nM. Samples with analyte concentrations above the upper limit of quantification were diluted with matrix to reach within the assay range. A non-compartmental analysis (NCA) was performed using the Phoenix WinNonLin analysis tool.

[5] = Transport across Caco 2 cell monolayer; format: in vitro ADME; settings: human, direction ab (apical to basal), 180 min incubation
[6] = Solubility in water or FaSSIF-V2 medium (Example 8, HPLC)
Description: The mobile phase consists of mobile phase (A): 1.13 g sodium dihydrogen phosphate and 2.5 g sodium acetate are dissolved in 1000 mL purified water. The pH is afterwards adjusted with acetic acid (100%) to 4.8. and mobile phase (B): 1 part mobile phase A is mixed with 4 parts of methanol for chromatography. The flow rate was 1.0 mL/min, injection volume 5 μL and detection wavelengths 320 nm (HP DAD series 1100). Run time is 10 min. Quantitation was performed using external standard methodology. The assay method has been validated with respect to selectivity, repeatability and linearity. Samples are prepared with dilute ammonia R3 PhEur.
The saturated solutions were filtrated using centrifuge filters (Nylon, […]) and the clear supernatants were respectively injected either directly or after dilution with dilute ammonia R3 PhEur.

[7] = Solubility in de-ionized water (HPLC); settings: 24 °C, thermodynamic from solid
Description: The flow rate was 1.0 mL/min, injection volume 5 μL and detection wavelengths 358 nm (for assay) and 260 nm (for chromatographic purity). Quantitation was performed using external standard methodology. The assay method has been validated with respect to selectivity, repeatability and linearity.

[8] = Gravimetric vapour sorption (GVS), hygroscopicity; format: physicochemical; settings: 25° C.
Description: Gravimetric vapour sorption (GVS) was used to determine the hygrocopicity of the samples: experiments were performed at 25° C. using a DVS 1 instrument from SMS Ltd to record adsorption-desorption isotherms using different methods, the main features being: a single sorption/desorption cycle from 0 to 80% RH in 10% RH steps with a dm/dt trigger value of 0.002% (dm/dt=change in mass with time—when the balance stability is within this value the next step is automatically started, however, if those conditions are not achieved there is a default maximum time for each step of 6 hours). The sample amount used was 1-3 mg.

[9] = set-up: species or system male Wistar (Hannover) rats; settings: rat, in vivo, iv
Description: as §1, §2
as §3, with “monitored. […]” for “monitored.”
Positive and negative mode MS/MS was employed for sulfasalazine. […] Samples with analyte concentrations above the upper limit of quantification were diluted with matrix to reach within the assay range. […]

[10] = male, Wistar (Hannover), whole blood

Structure (SMILES): O=C(O)c1cc(/N=N/c2ccc(S(=O)(=O)Nc3ccccn3)cc2)ccc1O [sulfasalazine, 2-hydroxy-5-[2-[4-[(2-pyridinylamino)sulfonyl]phenyl]diazenyl]-benzoic acid]
- solubility, United States Pharmacopoeia class practically insoluble ([1]; USP classification): < 100 µg/mL
- solubility in de-ionized water ([1]; de-ionized water at 24° C., literature value): 30 µg/mL and 31 µg/mL
- solubility in water ([1]; water): less than 5 mg/100 ml
- half-life ([2]; intravenously administered): approximately 7.6±3.6 hours
- time of median peak concentration ([2]; man, oral): 6 h
- binding of TNF-alpha to its receptor [3]: inhibits
- F ([4]; male, Wistar (Hannover), in vivo): 2.5%
- Cmax [4, 10]: 700 ± 110 nM
- Tmax [4, 10]: 0.72 ± 0.57 h
- AUC ([4]; male, Wistar (Hannover), whole blood, p.o., read-out: AUC0.1, 5 h obs): 0.81 ± 0.13 µM·h
- AUC ([4]; male, Wistar (Hannover), whole blood, p.o., read-out: AUCall): 2.81 ± 0.41 µM·h
- half-life ([4]; male, Wistar (Hannover), whole blood, p.o.): 2 ± 0.5 h
- Papp A→B at 180 min, 50 μg/mL ([5]; 50 μg/mL): 1.39 ×10⁻⁶ cm/s
- Papp A→B at 180 min, 200 μg/mL ([5]; 200 μg/mL): 1.16 ×10⁻⁶ cm/s
- Solubility ([6]; FaSSIF-V2, room temperature (20-25° C.), saturated solution): 780 µg/mL (≈ 1960 µM)
- solubility at 24 h ([6]; water, pH 5.9, water, thermodynamic from solid): 60 µg/mL (≈ 151 µM)
- Solubility [7]: 60 µg/mL (≈ 151 µM)

Structure (SMILES): CNCC(O)C(O)C(O)C(O)CO.O=C(O)c1cc(N=Nc2ccc(S(=O)(=O)Nc3ccccn3)cc2)ccc1O [Form A meglumine salt]
- water vapor uptake (GVS) ([8]; 30% RH, listed as Example 1): < 0.4 % w/w
- water vapor uptake (GVS) ([8]; 30% RH, listed as Example 2): 0.4 % w/w
- water vapor uptake (GVS) ([8]; 80% RH, listed as Example 1): < 0.9 % w/w
- water vapor uptake (GVS) ([8]; 80% RH, listed as Example 2): 1.1 % w/w
- AUCinf obs ([9]; 1 mg/kg): 1,661 ± 191 h*nM
- T1/2 ([9]; 1 mg/kg): 1.2 h
- AUCinf obs ([9]; 5 mg/kg): 11,889 ± 735 h*nM
- T1/2 ([9]; 5 mg/kg): 1.3 h
- F ([4]; in vivo): 3.8%
- T1/2 ([4]; in vivo): 1.9 ± 0.5 h
- Solubility ([6]; pH 6.8): 60300 µg/mL

Structure (SMILES): Nc1ccc(S(=O)(=O)Nc2ccccn2)cc1 [sulfapyridine]
- systemic bioavailability ([2]; metabolite formed from non-absorbed sulfasalazine by gut flora): about 60%

Structure (SMILES): CCNCC.O=C(O)c1cc(N=Nc2ccc(S(=O)(=O)Nc3ccccn3)cc2)ccc1O [Form A diethylamine salt, Diethylamine 2-hydroxy-5-[2-[4-[(2-pyridinylamino)sulfonyl]phenyl]diazenyl]-benzoate]
- water vapor uptake (GVS) ([8]; 30% RH): 0.3 % w/w
- water vapor uptake (GVS) ([8]; 80% RH): 0.5 % w/w

— US12128037B2 (priority 2017, dated 2024)
